Results from patent US20230303577A1, “TEMOZOLOMIDE ANALOGS AND METHODS OF USE” (St. John's Cancer Institute, priority 2020, published 2023).
Like-named read-outs stand apart in the source and are kept apart here.

Assays:
T98G = experiment: cells; conditions: Homo sapiens, 72 h
Experimental: (§1) The effect of selected compounds on glioma cells viability was determined. The cells were plated at 2000 cells/well in 96 well plates. The day after, cells were treated with various concentrations of temozolomide or VMY-TP analogs.
(§2) Activity of TP-RGD was assessed in glioma cell cultures, as described in Example 11.

U251 = experiment: cells; conditions: Homo sapiens, U-251, 72 h
Experimental: as §1, §2

U87 = experiment: cells; conditions: Homo sapiens, U-87 MG, 72 h
Experimental: as §1, §2

[1] = Pre-formulation testing: solubility, pH and stability in vehicles; type: physicochemical
Experimental: Two formulations for TP3 and TMZ were prepared (Tables 10 and 11). Pre-formulation testing was in volumes of 100 μl-250 μl, and should be confirmed with larger volumes. Mice were dosed at 20 mg/kg of TMZ and TP3 using formulation 2 orally and brain and plasma samples were collected at 0, 0.5, 1, 3, 6 and 12 h timepoints and the concentration was measured using LC-MS and calculate PK parameters using standard equation. The stability profile (FIGS. 9A and 9B) and release kinetics profiles (FIGS. 10A and 10B) were compared. Single dose oral brain to plasma pharmacokinetic parameters were determined with Formulation 2 (Table 12).

[2] = Metabolic stability in mouse liver microsomes; type: in vitro ADME; conditions: for microsomal CLint: mouse, liver microsomes
Experimental: Metabolic stability of the compounds was also determined in mouse liver microsomes at five time points over 60 minutes, using HPLC-MS. Liver microsomes, as vesicles of the hepatocyte endoplasmic reticulum, contain membrane phase I enzymes namely CYPs, flavine-containing monooxygenases (FMO), esterases, amidases, and epoxide hydrolases, and also the phase II enzymes such as UGTs. For the catalytic activity of both phase I and II enzymes, addition of exogenous cofactors such as NADPH for CYPs and FMO, and UDPGA/alamethicin for UGTs is necessary.

[3] = Aqueous chemical stability (HPLC-MS); type: physicochemical
Experimental: Detection of products of non-enzymatic cleavage (AIC-TMZ, AIC-TP3, AIC-TP5, and AIC-TP9) was performed (Table 4; FIGS. 5A-5D).

U87MG Resistant = experiment: AlamarBlue cell viability, U87MG TMZ resistant; type: cell-based; conditions: Homo sapiens, U-87 MG; 72 hours
Experimental: (§3) Cells were seeded in 96-well plates. The day after, cells were treated with various concentrations of temozolomide or TP3. Cell viability was measured by AlamarBlue™ cell viability reagent after 72 hours, considering the control level of cells to be 100%.

P-gp = experiment: Bidirectional Caco-2 permeability / P-gp efflux assay; type: in vitro ADME; conditions: human; for Papp A→B: read-out: Papp (AB) p-gp Inhibitor (−); for Papp B→A: read-out: Papp (BA) p-gp Inhibitor (−)
Experimental: Permeability of the compounds was evaluated in the bidirectional Caco-2 assay including identification of P-glycoprotein substrate (Pgp-mediated transport). Verapamil was used as a p-gp inhibitor. The apparent permeability (Papp) was calculated using the following equation:
Papp=VA/Area×Time×[drug]acc/[drug]initial,d
Permeability of the compounds was evaluated in the bidirectional Caco-2 assay as described in Example 11 (Table 15).

U251 Resistant = experiment: AlamarBlue cell viability, U251 TMZ resistant; type: cell-based; conditions: Homo sapiens, U-251; 72 hours
Experimental: as §3

U251 Parent (Sensitive) = experiment: AlamarBlue cell viability, U251 parent (TMZ sensitive); type: cell-based; conditions: Homo sapiens, U-251; 72 hours
Experimental: as §3

U87MG Parent (Sensitive) = experiment: AlamarBlue cell viability, U87MG parent (TMZ sensitive); type: cell-based; conditions: Homo sapiens, U-87 MG; 72 hours
Experimental: as §3

[4] = BBB permeability, cassette intravenous dosing; type: in vivo, male CD-1 mice; conditions: cassette IV 5 mg/kg; for % Brain / % Plasma: 5 min; for concentration at 5 min / Kp at 5 min: male, CD-1, mouse; for concentration at 5 min: 10% DMSO in PBS; for Kp at 5 min: brain/plasma
Experimental: BBB permeability of the compounds was tested in male CD-1@IGS mice using cassette intravenous dosing (Table 7 and FIGS. 6A and 6B). There were three animals in each group, given a dose of 5 mg/kg formulated in 10% DMSO in PBS (v/v) for 5 minutes. The endpoint was quantifying the parent compound using LC-MS/MS. Plasma samples (50 μl) were immediately mixed with 25 μl of H3PO4 (8.5%). Then 225 μl of internal standard (IS; 400 ng/ml meldonium in methanol) was added. After mixing by pipetting and centrifuging for 4 min at 6000 rpm, 2 μl of each supernatant was injected into LC-MS/MS system. Brain samples (100 mg±1 mg) were immediately mixed with 100 μl H3PO4 (25%) and zirconium oxide beads (115 mg±5 mg). Then 400 μl of IS solution was added and samples were disperse using a bullet blender homogenizer for 30 seconds at speed 8. The samples were centrifuged for 4 min at 14,000 rpm and 2 μl of each supernatant was injected into LC-MS/MS system.

GBM8 = experiment: AlamarBlue cell viability, GBM8 patient-derived cell line; type: cell-based; conditions: 72 h, read-out: IC50, 72 h
Experimental: as §1

[5] = 2.0 mg/mL in 10% DMA + 15% Solutol HS15 + 10% PEG 400 + 10% PG + 55% of 15% (w/v) Captisol
[6] = read-out: Intrinsic clearance (Clint)
[7] = Caco-2, without verapamil, read-out: Efflux Ratio BA/AB p-gp Inhibitor (−)
[8] = 2.0 mg/mL in 10% DMA + 10% Tween 80 + 15% PEG 400 + 15% PG + 50% of 15% (w/v) Captisol
[9] = 2.0 mg/mL in 10% DMA + 10% Tween 80 + 15% PEG 400 + 15% PG + 50% of 25% (w/v) Captisol
[10] = 4.0 mg/mL in 5% DMA + 10% Tween 80 + 10% PEG 400 + 10% PG + 65% of 50% (w/v) Captisol
[11] = 4.0 mg/mL in 10% DMA + 10% Tween 80 + 10% PEG 400 + 10% PG + 60% of 50% (w/v) Captisol

With `Cn1nnc2c(C(N)=O)ncn2c1=O` [TMZ, temozolomide] the IC50 (T98G; read-out: IC50, 72 h, T98G, MGMT +++, Table 14) was > 600 µM, the IC50 (T98G; read-out: IC50, 72 h, T98G, MGMT +, Table 2) was 1140 µM and the IC50 (U251; read-out: IC50, 72 h, U251, MGMT −, Table 2) was 898 µM. It also gave an IC50 (U251; read-out: IC50, 72 h, U251, MGMT −, Table 14) of 383 µM, an IC50 (U87; read-out: IC50, 72 h, U87, MGMT −, Table 2) of 208 µM and an IC50 (U87; read-out: IC50, 72 h, U87MG, MGMT −, Table 14) of 440 µM. For the same compound, the “Remarks (solubility)” value [1, 5] was “Soluble”, the “Stability (0-4 h)” value ([1]; Formulation 2, 2 mg/ml) was “Stable” and the “Stability (0-4 h)” value ([1]; Formulation 3, 2 mg/ml) was “Stable”. The “Clearance Classification (Low <8.6; High >48)” value [2] was “Moderate”, the microsomal CLint [2, 6] was 15 µL/min/mg and the “% remaining (1 h) With co-factors” value [2] was 65%. For the same compound, the “% remaining (1 h) Without co-factors” value [2] was 72%, the half-life at 1 μM ([3]; 0.1 M phosphate buffer pH 8.0) was 31 min and the half-life at 1 μM ([3]; PBS pH 7.4) was 59 min. The IC50 (U87MG Resistant) was > 1000 µM, the efflux ratio (P-gp; Caco-2, Caco-2 permeability, P-gp efflux ratio, Table 15, read-out: Efflux Ratio) was 1.04 and the efflux ratio (P-gp; [7]) was 1. For the same compound, the Papp A→B (P-gp; Caco-2, without verapamil) was 20.2 ×10⁻⁶ cm/s, the Papp B→A (P-gp; Caco-2, without verapamil) was 21 ×10⁻⁶ cm/s and the IC50 (U251 Resistant) was 180 µM. For the same compound, the IC50 (U251 Parent (Sensitive)) was 70 µM, the IC50 (U87MG Parent (Sensitive)) was 310 µM and the “% Brain” value [4] was 7%. The “% Plasma” value [4] was 93%, the concentration at 5 min ([4]; brain, read-out: Brain Conc.) was 1290 ng/g and the Kp at 5 min [4] was 0.23. For the same compound, the concentration at 5 min ([4]; plasma, read-out: Plasma Conc) was 5540 ng/mL and the IC50 (GBM8; GBM8, MGMT −, Table 2) was 45 µM.

With `CCCCCCNC(=O)c1ncn2c(=O)n(C)nnc12` [TP3, N-hexyl-3-methyl-4-oxo-3,4-dihydroimidazo[5,1-d][1,2,3,5]tetrazine-8-carboxamide] the IC50 (T98G; read-out: IC50, 72 h) was 1260 µM, the IC50 (U251; read-out: IC50, 72 h) was 397 µM and the IC50 (U87; read-out: IC50, 72 h) was 399 µM. The “Remarks (solubility)” value ([1]; 2.0 mg/mL in 5% DMA + 10% Tween 80 + 10% PEG 400 + 10% PG + 65% of 15% (w/v) Captisol) was “Not Soluble”, the “Remarks (solubility)” value ([1]; 2.0 mg/mL in 10% DMA + 10% Tween 80 + 10% PEG 400 + 10% PG + 60% Normal saline) was “Not Soluble” and the pH ([1]; 2.0 mg/mL in 10% DMA + 10% Tween 80 + 10% PEG 400 + 10% PG + 60% of 15% (w/v) Captisol (100 μL)) was ~6. The “Remarks (solubility)” value ([1]; 2.0 mg/mL in 10% DMA + 10% Tween 80 + 10% PEG 400 + 10% PG + 60% of 15% (w/v) Captisol (100 μL, from 20 mg/mL DMA stock)) was “Soluble”, the “Remarks (solubility)” value ([1]; 2.0 mg/mL in 10% DMA + 10% Tween 80 + 10% PEG 400 + 10% PG + 60% of 15% (w/v) Captisol (250 μL)) was “Not Soluble” and the “Remarks (solubility)” value ([1]; 2.0 mg/mL in 10% DMA + 10% Tween 80 + 10% PEG 400 + 10% PG + 60% of 15% (w/v) HPβCD) was “Not Soluble”. For the same compound, the “Remarks (solubility)” value [1, 8] was “Soluble”, the pH [1, 8] was ~6 and the “Remarks (solubility)” value [1, 9] was “Soluble”. For the same compound, the pH [1, 9] was ~6, the “Remarks (solubility)” value [1, 5] was “Soluble” and the “Remarks (solubility)” value [1, 10] was “Soluble”. The pH [1, 10] was ~6, the “Remarks (solubility)” value ([1]; 4.0 mg/mL in 5% DMA + 10% Tween 80 + 10% PEG 400 + 10% PG + 65% of 50% (w/v) HPβCD) was “Not Soluble” and the “Remarks (solubility)” value ([1]; 4.0 mg/mL in 10% DMA + 5% Tween 80 + 15% PEG 400 + 15% PG + 50% of 25% (w/v) Captisol) was “Not Soluble”. The “Remarks (solubility)” value ([1]; 4.0 mg/mL in 10% DMA + 5% Tween 80 + 85% Normal saline) was “Not Soluble”, the “Remarks (solubility)” value ([1]; 4.0 mg/mL in 10% DMA + 10% Tween 80 + 10% PEG 400 + 10% PG + 60% Normal saline) was “Not Soluble” and the “Remarks (solubility)” value [1, 11] was “Soluble”. The pH [1, 11] was ~6, the “Remarks (solubility)” value ([1]; 4.00 mg/mL in 25% of DMSO + 75% Normal Saline) was “Not Soluble” and the “Stability (0-4 h)” value ([1]; Formulation 2, 2 mg/ml) was “Stable”. For the same compound, the pH ([1]; Formulation 2, 2 mg/ml) was 4.81, the “Stability (0-4 h)” value ([1]; Formulation 3, 2 mg/ml) was “Stable” and the pH ([1]; Formulation 3, 2 mg/ml) was 5.66. For the same compound, the microsomal CLint ([2]; read-out: Clearance Classification (Low <8.6; High >48)) was > 48 µL/min/mg, the microsomal CLint [2, 6] was 358 µL/min/mg and the “% remaining (1 h) With co-factors” value [2] was 0%. The “% remaining (1 h) Without co-factors” value [2] was 80%, the half-life at 1 μM ([3]; 0.1 M phosphate buffer pH 7.0) was 119 min and the half-life at 1 μM ([3]; 0.1 M phosphate buffer pH 8.0) was 39 min. For the same compound, the half-life at 1 μM ([3]; PBS pH 7.4) was 62 min, the IC50 (U87MG Resistant) was 280 µM and the efflux ratio (P-gp; [7]) was 0.6. For the same compound, the Papp A→B (P-gp; Caco-2, without verapamil) was 30.7 ×10⁻⁶ cm/s, the Papp B→A (P-gp; Caco-2, without verapamil) was 17 ×10⁻⁶ cm/s and the IC50 (U251 Resistant) was 63 µM. For the same compound, the IC50 (U251 Parent (Sensitive)) was 71 µM, the IC50 (U87MG Parent (Sensitive)) was 250 µM and the “% Brain” value [4] was 20%. For the same compound, the “% Plasma” value [4] was 80%, the concentration at 5 min ([4]; brain, read-out: Brain Conc.) was 2080 ng/g and the Kp at 5 min [4] was 0.71. It also gave a concentration at 5 min ([4]; plasma, read-out: Plasma Conc) of 2920 ng/mL and an IC50 (GBM8) of 2 µM.
